Data from ChEMBL document CHEMBL5291721, “A preclinical secondary pharmacology resource illuminates target-adverse drug reaction associations of marketed drugs” (Nat Commun, 2023).

What was measured:
[1] = target: T1, Alpha-2A adrenergic receptor (Homo sapiens, UniProt P08913); format: functional, cell-based
T1 sequence (P08913 whole entry): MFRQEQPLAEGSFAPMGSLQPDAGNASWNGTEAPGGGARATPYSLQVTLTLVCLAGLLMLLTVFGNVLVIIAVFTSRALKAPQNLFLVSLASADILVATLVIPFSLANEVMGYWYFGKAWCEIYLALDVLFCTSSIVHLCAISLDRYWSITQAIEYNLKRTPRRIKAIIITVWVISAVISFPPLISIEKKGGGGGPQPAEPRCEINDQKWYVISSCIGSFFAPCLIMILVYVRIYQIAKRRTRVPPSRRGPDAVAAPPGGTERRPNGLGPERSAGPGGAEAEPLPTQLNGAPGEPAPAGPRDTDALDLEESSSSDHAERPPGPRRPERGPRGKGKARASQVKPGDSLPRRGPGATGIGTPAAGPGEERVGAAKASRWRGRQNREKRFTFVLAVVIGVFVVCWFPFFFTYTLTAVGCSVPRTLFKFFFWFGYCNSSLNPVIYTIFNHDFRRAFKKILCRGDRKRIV

B2 bradykinin receptor = target: T2, B2 bradykinin receptor (Homo sapiens, UniProt P30411)
T2 sequence (P30411 whole entry): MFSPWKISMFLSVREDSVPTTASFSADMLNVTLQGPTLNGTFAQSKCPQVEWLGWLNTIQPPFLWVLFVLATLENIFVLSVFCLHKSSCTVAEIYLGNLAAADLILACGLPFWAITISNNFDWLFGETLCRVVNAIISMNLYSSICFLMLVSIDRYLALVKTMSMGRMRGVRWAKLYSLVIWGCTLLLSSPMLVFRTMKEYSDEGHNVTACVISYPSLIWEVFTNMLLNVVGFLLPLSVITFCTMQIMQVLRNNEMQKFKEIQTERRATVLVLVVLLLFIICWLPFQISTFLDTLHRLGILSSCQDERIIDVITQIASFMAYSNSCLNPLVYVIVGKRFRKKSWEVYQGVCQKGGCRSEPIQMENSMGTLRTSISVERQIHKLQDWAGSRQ

[2] = target: T3, Prostaglandin G/H synthase 1 (Rattus norvegicus, UniProt Q63921); format: functional
T3 sequence (Q63921 whole entry): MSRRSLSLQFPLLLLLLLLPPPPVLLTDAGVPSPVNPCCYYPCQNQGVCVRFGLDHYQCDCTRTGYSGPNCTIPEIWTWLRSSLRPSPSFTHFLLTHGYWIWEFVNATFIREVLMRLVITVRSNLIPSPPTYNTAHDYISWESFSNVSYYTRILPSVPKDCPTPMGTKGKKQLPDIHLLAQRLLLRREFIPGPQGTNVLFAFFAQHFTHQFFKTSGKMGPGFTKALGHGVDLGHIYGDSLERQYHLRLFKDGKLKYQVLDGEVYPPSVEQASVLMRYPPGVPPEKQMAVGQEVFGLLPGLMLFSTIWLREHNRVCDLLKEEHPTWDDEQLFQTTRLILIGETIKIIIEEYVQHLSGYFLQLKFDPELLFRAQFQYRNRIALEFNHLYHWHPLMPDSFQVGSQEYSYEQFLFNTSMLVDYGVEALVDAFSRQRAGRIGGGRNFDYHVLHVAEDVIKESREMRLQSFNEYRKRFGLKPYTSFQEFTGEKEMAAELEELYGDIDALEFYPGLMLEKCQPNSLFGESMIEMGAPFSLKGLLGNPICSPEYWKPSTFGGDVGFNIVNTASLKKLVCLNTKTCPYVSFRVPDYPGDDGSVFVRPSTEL

[3] = target: T4, Muscarinic acetylcholine receptor M2 (Homo sapiens, UniProt P08172); format: functional, cell-based
T4 sequence (P08172 whole entry): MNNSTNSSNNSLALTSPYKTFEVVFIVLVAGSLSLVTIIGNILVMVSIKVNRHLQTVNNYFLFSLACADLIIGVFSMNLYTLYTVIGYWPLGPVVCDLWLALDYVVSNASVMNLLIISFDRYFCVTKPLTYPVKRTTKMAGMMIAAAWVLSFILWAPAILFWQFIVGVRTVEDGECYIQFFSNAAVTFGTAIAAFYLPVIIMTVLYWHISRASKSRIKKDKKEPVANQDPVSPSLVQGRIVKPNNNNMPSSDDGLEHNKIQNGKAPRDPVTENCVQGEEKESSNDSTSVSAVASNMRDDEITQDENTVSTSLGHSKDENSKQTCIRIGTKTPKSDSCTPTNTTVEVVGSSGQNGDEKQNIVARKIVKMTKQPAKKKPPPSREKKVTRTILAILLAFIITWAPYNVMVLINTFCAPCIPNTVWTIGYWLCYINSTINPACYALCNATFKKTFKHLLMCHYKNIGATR

[4] = target: Kappa-type opioid receptor (Homo sapiens, UniProt P41145)
Sequence of Kappa-type opioid receptor (P41145 whole entry): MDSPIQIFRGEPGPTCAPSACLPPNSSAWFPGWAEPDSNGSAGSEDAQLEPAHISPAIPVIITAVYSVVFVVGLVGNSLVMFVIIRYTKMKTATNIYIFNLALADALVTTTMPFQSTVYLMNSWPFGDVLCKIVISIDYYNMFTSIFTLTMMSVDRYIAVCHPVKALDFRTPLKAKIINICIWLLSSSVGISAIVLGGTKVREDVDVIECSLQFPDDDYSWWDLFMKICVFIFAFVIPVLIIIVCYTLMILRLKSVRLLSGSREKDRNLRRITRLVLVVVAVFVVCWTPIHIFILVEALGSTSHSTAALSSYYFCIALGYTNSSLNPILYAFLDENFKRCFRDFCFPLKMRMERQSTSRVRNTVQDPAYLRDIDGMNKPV

[5] = target: 5-hydroxytryptamine receptor 2B (Homo sapiens, UniProt P41595); format: functional, cell-based
Sequence of 5-hydroxytryptamine receptor 2B (P41595 whole entry): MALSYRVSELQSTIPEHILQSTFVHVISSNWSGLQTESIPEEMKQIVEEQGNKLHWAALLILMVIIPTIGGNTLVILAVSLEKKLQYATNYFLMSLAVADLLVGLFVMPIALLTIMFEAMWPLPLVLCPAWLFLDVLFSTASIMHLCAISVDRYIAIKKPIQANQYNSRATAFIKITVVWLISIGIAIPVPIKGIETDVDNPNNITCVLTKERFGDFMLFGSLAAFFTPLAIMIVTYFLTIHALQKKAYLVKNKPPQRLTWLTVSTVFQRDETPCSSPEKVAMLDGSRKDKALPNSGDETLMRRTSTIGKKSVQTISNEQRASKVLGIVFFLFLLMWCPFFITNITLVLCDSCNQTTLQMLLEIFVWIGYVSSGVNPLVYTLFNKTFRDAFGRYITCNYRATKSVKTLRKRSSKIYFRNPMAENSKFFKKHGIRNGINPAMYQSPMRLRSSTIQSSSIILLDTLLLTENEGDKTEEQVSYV

Melanocortin receptor 3 = Melanocortin receptor 3 (Homo sapiens, UniProt P41968)
Sequence of Melanocortin receptor 3 (P41968 whole entry): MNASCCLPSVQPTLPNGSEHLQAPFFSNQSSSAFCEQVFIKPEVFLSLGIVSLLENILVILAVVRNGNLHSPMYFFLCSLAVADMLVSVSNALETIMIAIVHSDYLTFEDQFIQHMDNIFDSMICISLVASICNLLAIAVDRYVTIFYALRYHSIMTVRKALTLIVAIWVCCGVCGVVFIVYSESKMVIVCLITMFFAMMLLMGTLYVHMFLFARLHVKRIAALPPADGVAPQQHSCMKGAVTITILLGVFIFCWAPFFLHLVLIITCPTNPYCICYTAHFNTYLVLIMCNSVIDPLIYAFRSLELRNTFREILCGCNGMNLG

[6] = target: T5, 5-hydroxytryptamine receptor 2C (Homo sapiens, UniProt P28335)
T5 sequence (P28335 whole entry): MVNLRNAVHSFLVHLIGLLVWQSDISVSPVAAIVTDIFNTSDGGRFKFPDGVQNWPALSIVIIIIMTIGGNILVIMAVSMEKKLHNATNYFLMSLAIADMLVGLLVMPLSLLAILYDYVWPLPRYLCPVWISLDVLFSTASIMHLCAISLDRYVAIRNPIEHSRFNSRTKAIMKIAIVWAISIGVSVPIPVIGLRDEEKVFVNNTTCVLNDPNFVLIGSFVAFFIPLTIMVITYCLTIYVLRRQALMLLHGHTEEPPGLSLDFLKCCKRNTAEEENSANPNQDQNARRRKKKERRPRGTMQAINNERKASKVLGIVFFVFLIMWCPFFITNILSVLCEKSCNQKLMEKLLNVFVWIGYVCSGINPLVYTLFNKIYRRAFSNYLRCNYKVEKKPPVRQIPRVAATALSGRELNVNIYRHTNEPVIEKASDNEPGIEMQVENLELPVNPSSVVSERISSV

[7] = target: 3',5'-cyclic-AMP phosphodiesterase 4D (Homo sapiens, UniProt Q08499); format: functional
Sequence of 3',5'-cyclic-AMP phosphodiesterase 4D (Q08499 whole entry): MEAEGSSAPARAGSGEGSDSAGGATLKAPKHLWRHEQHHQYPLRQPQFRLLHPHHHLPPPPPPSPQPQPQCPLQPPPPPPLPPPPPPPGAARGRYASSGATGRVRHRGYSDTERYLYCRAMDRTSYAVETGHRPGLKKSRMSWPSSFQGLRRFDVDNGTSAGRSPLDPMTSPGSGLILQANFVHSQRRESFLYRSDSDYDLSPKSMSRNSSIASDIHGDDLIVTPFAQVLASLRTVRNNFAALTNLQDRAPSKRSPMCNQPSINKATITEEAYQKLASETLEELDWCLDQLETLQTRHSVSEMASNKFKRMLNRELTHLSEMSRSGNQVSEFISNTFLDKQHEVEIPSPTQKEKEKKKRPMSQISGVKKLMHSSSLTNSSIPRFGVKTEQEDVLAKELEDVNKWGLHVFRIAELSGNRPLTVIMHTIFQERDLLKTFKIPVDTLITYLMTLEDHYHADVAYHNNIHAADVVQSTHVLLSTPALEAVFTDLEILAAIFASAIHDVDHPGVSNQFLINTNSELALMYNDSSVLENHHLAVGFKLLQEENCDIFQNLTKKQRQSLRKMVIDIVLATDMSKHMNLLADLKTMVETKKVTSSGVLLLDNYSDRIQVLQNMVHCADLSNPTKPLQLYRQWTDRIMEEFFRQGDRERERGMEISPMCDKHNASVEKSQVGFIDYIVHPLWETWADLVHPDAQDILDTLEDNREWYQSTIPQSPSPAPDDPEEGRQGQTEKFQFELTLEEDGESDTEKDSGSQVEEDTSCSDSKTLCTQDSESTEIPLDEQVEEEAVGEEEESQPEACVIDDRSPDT
Also: assay procedure not described here.

## CCOC(=O)C1=C(C)NC(C)=C(C(=O)OC)C1c1cccc(Cl)c1Cl (stereo not given) [FELODIPINE]
[1]
  AC50: > 10 µM
B2 bradykinin receptor
  AC50: > 30 µM
[2]
  AC50: > 30 µM
[3]
  AC50: > 10 µM
[4]
  AC50: 8.88 µM
[5]
  AC50: > 10 µM
Melanocortin receptor 3
  AC50: > 30 µM
[6]
  AC50: > 10 µM
[7]
  AC50: 3.2 µM

## TEPRENONE
[1]
  AC50: > 10 µM
B2 bradykinin receptor
  AC50: > 30 µM
[2]
  AC50: 16.1 µM
[3]
  AC50: > 10 µM
[4]
  AC50: 17 µM
[5]
  AC50: > 10 µM
Melanocortin receptor 3
  AC50: > 30 µM
[6]
  AC50: > 30 µM
[7]
  AC50: > 30 µM

## O=C(O)CCCC[C@@H]1SC[C@@H]2NC(=O)N[C@@H]21 [BIOTIN]
[1]
  AC50: > 10 µM
B2 bradykinin receptor
  AC50: > 10 µM
[2]
  AC50: > 10 µM
[3]
  AC50: > 10 µM
[4]
  AC50: > 10 µM
[5]
  AC50: > 10 µM
Melanocortin receptor 3
  AC50: > 10 µM
[6]
  AC50: > 30 µM
[7]
  AC50: > 30 µM

## N=C(N)NC(=O)Cc1c(Cl)cccc1Cl [GUANFACINE]
B2 bradykinin receptor
  AC50: > 30 µM
[2]
  AC50: > 30 µM
[3]
  AC50: > 30 µM
[4]
  AC50: 5.95 µM
Melanocortin receptor 3
  AC50: > 30 µM
[6]
  AC50: 10 µM
[7]
  AC50: > 30 µM

## CCC1(C)CC(=O)NC1=O (stereo not given) [ETHOSUXIMIDE]
[1]
  AC50: > 10 µM
B2 bradykinin receptor
  AC50: > 10 µM
[2]
  AC50: > 10 µM
[3]
  AC50: > 10 µM
[4]
  AC50: > 10 µM
[5]
  AC50: > 10 µM
Melanocortin receptor 3
  AC50: > 10 µM
[6]
  AC50: > 30 µM
[7]
  AC50: > 30 µM

## CCN(CC)C(C)C(=O)c1ccccc1 (stereo not given) [DIETHYLPROPION]
[1]
  AC50: > 10 µM
B2 bradykinin receptor
  AC50: > 30 µM
[2]
  AC50: > 30 µM
[3]
  AC50: > 10 µM
[4]
  AC50: > 10 µM
[5]
  AC50: > 10 µM
Melanocortin receptor 3
  AC50: > 30 µM
[6]
  AC50: > 30 µM
[7]
  AC50: > 30 µM

## O=C1CN=C(c2ccccc2Cl)c2cc([N+](=O)[O-])ccc2N1 [CLONAZEPAM]
[1]
  AC50: > 10 µM
B2 bradykinin receptor
  AC50: > 30 µM
[2]
  AC50: > 30 µM
[3]
  AC50: > 10 µM
[4]
  AC50: > 10 µM
[5]
  AC50: > 10 µM
Melanocortin receptor 3
  AC50: > 30 µM
[6]
  AC50: > 30 µM
[7]
  AC50: > 30 µM

## Cc1cccc(Nc2ccncc2S(=O)(=O)NC(=O)NC(C)C)c1 [TORSEMIDE]
[1]
  AC50: > 10 µM
B2 bradykinin receptor
  AC50: > 30 µM
[2]
  AC50: > 10 µM
[3]
  AC50: > 10 µM
[4]
  AC50: > 10 µM
[5]
  AC50: > 10 µM
Melanocortin receptor 3
  AC50: > 30 µM
[6]
  AC50: > 30 µM
[7]
  AC50: > 30 µM

## CC(NC(C)(C)C)C(=O)c1cccc(Cl)c1 (stereo not given) [BUPROPION]
[1]
  AC50: > 10 µM
B2 bradykinin receptor
  AC50: > 30 µM
[3]
  AC50: > 10 µM
[5]
  AC50: > 10 µM
Melanocortin receptor 3
  AC50: > 30 µM
[6]
  AC50: > 30 µM

## Cc1nnc2n1-c1ccc(Cl)cc1C(c1ccccc1)=NC2 [ALPRAZOLAM]
[1]
  AC50: > 10 µM
B2 bradykinin receptor
  AC50: > 30 µM
[2]
  AC50: > 30 µM
[3]
  AC50: > 10 µM
[4]
  AC50: 7.48 µM
[5]
  AC50: > 10 µM
Melanocortin receptor 3
  AC50: > 30 µM
[6]
  AC50: > 30 µM
[7]
  AC50: > 30 µM
